{
  "source": "ChEMBL document CHEMBL1136518",
  "about": "“Potent, selective inhibitors of protein tyrosine phosphatase 1B” (Bioorg Med Chem Lett, 2003)",
  "key": {"[1]": {"biological_target": "T1, Tyrosine-protein phosphatase non-receptor type 2 (Homo sapiens, UniProt P17706)", "T1 sequence (P17706 whole entry)": "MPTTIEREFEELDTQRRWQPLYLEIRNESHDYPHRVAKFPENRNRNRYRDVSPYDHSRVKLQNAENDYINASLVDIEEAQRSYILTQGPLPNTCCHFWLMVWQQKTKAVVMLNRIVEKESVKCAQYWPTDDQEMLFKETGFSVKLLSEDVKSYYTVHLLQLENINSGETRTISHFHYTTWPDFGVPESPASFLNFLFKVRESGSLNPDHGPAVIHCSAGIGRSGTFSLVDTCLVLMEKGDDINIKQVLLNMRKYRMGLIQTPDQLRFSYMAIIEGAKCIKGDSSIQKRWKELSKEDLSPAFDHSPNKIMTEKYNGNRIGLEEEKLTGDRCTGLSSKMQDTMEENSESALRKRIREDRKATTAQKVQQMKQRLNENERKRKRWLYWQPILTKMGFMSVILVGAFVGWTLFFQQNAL", "experiment": "Inhibitory activity tested against T-cell Protein tyrosine phosphatase 2 (TCPTP)"}, "[2]": {"biological_target": "T2, Tyrosine-protein phosphatase non-receptor type 1 (Homo sapiens, UniProt P18031)", "T2 sequence (P18031 whole entry)": "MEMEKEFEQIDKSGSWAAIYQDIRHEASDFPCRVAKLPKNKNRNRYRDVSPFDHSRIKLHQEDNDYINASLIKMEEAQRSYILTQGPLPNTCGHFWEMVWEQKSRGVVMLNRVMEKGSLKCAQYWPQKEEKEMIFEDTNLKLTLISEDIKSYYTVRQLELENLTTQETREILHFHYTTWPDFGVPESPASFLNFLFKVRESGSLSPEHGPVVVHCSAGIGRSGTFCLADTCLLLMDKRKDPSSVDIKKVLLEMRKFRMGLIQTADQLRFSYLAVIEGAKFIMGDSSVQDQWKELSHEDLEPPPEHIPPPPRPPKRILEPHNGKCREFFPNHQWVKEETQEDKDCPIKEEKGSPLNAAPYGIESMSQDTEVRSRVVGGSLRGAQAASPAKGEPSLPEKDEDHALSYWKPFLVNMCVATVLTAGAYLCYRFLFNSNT", "experiment": "Inhibitory activity tested against Protein-tyrosine phosphatase 1B (PTP1B)"}, "[3]": {"experiment": "Inhibition of LAR (leukocyte common antigen-related) phosphatase"}, "[4]": {"biological_target": "T3, M-phase inducer phosphatase 3 (Homo sapiens, UniProt P30307)", "T3 sequence (P30307 whole entry)": "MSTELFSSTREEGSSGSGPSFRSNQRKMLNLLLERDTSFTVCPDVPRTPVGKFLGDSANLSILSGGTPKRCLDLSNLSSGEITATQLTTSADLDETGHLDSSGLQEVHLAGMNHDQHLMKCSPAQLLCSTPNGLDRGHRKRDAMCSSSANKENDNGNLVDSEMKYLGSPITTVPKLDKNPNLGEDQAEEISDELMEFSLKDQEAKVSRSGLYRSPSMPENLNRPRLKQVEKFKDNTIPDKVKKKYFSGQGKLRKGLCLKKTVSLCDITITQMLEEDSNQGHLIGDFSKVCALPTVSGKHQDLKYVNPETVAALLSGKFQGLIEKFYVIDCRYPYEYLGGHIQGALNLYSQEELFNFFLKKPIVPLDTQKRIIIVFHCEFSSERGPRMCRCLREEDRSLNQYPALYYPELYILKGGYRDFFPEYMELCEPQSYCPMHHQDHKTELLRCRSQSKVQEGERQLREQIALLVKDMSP", "experiment": "Inhibition of Cell division cycle 25 (Cdc25) phosphatase"}, "[5]": {"experiment": "Inhibition of SHP-2 phosphatase"}, "[6]": {"biological_target": "T4, Receptor-type tyrosine-protein phosphatase C (Homo sapiens, UniProt P08575)", "T4 sequence (P08575 whole entry)": "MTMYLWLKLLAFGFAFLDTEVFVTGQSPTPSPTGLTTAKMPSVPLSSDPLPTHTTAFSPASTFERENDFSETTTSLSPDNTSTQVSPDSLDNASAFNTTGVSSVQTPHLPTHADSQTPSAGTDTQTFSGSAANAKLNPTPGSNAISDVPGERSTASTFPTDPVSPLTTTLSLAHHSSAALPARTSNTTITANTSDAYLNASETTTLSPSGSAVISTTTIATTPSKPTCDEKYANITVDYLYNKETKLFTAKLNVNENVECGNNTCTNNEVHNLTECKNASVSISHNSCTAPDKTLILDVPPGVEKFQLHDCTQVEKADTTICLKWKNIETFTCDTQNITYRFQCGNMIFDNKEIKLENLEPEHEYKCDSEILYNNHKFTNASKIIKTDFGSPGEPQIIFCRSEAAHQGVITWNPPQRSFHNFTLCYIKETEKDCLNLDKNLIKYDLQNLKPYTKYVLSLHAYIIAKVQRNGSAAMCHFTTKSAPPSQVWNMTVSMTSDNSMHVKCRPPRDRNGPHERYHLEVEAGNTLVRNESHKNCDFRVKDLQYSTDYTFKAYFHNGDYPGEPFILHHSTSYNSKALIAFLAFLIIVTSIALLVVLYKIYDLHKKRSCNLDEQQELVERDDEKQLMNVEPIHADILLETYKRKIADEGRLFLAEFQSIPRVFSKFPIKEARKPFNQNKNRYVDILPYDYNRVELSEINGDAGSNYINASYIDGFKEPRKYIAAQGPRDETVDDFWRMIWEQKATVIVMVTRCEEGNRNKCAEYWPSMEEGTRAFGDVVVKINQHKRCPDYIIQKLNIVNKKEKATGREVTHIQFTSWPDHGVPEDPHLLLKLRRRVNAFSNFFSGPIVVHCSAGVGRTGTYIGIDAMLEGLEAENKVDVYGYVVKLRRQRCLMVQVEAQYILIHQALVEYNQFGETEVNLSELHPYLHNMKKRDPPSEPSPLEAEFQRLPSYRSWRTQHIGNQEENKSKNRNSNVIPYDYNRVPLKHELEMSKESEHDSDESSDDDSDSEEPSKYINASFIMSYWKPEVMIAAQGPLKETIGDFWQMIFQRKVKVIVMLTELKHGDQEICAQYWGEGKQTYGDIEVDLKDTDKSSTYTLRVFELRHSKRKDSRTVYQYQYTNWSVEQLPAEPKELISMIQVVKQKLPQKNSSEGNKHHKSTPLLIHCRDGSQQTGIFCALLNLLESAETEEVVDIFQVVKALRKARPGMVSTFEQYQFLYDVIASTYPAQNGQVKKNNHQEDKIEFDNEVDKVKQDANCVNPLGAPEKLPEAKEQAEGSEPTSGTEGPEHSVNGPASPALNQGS", "experiment": "Inhibition of common leukocyte antigen CD45 phosphatase"}},
  "data": [
    {"compound": "CCCC[C@H](NC(=O)CCCCNC(=O)C(Cc1ccc(N(C(=O)C(=O)O)c2ccccc2C(=O)O)c(CC)c1)NC(C)=O)C(=O)O", "note": "(stereo not given in full)", "values": [
      {"measurement": "Ki", "setting": "[1]", "result": 240, "unit": "nM"},
      {"measurement": "Ki", "setting": "[2]", "result": 120, "unit": "nM"}
    ]},
    {"compound": "CCc1cc(CC(NC(C)=O)C(=O)NCCCCC(=O)N[C@@H](CCCCN)C(=O)O)ccc1N(C(=O)C(=O)O)c1ccccc1C(=O)O", "note": "(stereo not given in full)", "values": [
      {"measurement": "Ki", "setting": "[1]", "result": 820, "unit": "nM"},
      {"measurement": "Ki", "setting": "[2]", "result": 710, "unit": "nM"}
    ]},
    {"compound": "CCc1cc(CC(NC(C)=O)C(=O)NCCCCC(=O)N[C@@H](CCS(C)(=O)=O)C(=O)O)ccc1N(C(=O)C(=O)O)c1ccccc1C(=O)O", "note": "(stereo not given in full)", "values": [
      {"measurement": "Ki", "setting": "[1]", "result": 370, "unit": "nM"},
      {"measurement": "Ki", "setting": "[2]", "result": 470, "unit": "nM"}
    ]},
    {"compound": "CCc1cc(CC(NC(C)=O)C(=O)NCCCCC(=O)N[C@H](C(=O)O)C2CCCCC2)ccc1N(C(=O)C(=O)O)c1ccccc1C(=O)O", "note": "(stereo not given in full)", "values": [
      {"measurement": "Ki", "setting": "[1]", "result": 290, "unit": "nM"},
      {"measurement": "Ki", "setting": "[2]", "result": 250, "unit": "nM"}
    ]},
    {"compound": "CCc1cc(CC(NC(C)=O)C(=O)NCCCCC(=O)NC(Cc2ccccc2)C(N)=O)ccc1N(C(=O)C(=O)O)c1ccccc1C(=O)O", "note": "(stereo not given)", "values": [
      {"measurement": "Ki", "setting": "[1]", "result": 700, "unit": "nM"},
      {"measurement": "Ki", "setting": "[2]", "result": 1300, "unit": "nM"}
    ]},
    {"compound": "CCc1cc(CC(NC(C)=O)C(=O)NCCCCC(=O)NCCc2ccccc2)ccc1N(C(=O)C(=O)O)c1ccccc1C(=O)O", "note": "(stereo not given)", "values": [
      {"measurement": "Ki", "setting": "[1]", "result": 1400, "unit": "nM"},
      {"measurement": "Ki", "setting": "[2]", "result": 3400, "unit": "nM"}
    ]},
    {"compound": "CCc1cc(CC(NC(C)=O)C(=O)NCCCCC(=O)N[C@H](C(=O)O)C(C)CC)ccc1N(C(=O)C(=O)O)c1ccccc1C(=O)O", "note": "(stereo not given in full)", "values": [
      {"measurement": "Ki", "setting": "[1]", "result": 400, "unit": "nM"},
      {"measurement": "Ki", "setting": "[2]", "result": 430, "unit": "nM"}
    ]},
    {"compound": "CCc1cc(CC(NC(C)=O)C(=O)NCCCCC(=O)O)ccc1N(C(=O)C(=O)O)c1ccccc1C(=O)O", "note": "(stereo not given)", "values": [
      {"measurement": "Ki", "setting": "[1]", "result": 2200, "unit": "nM"},
      {"measurement": "Ki", "setting": "[2]", "result": 2500, "unit": "nM"}
    ]},
    {"compound": "CCc1cc(CC(NC(C)=O)C(=O)NCCCCC(=O)N[C@@H](CCC(N)=O)C(=O)O)ccc1N(C(=O)C(=O)O)c1ccccc1C(=O)O", "note": "(stereo not given in full)", "values": [
      {"measurement": "Ki", "setting": "[1]", "result": 270, "unit": "nM"},
      {"measurement": "Ki", "setting": "[2]", "result": 330, "unit": "nM"}
    ]},
    {"compound": "CCc1cc(CC(NC(C)=O)C(=O)NCCCCC(=O)N[C@@H](CCSC)C(=O)O)ccc1N(C(=O)C(=O)O)c1ccccc1C(=O)O", "note": "(stereo not given in full)", "values": [
      {"measurement": "Ki", "setting": "[3]", "result": 8750, "unit": "nM"},
      {"measurement": "Ki", "setting": "[4]", "result": "> 300000", "unit": "nM"},
      {"measurement": "Ki", "setting": "[5]", "result": 73200, "unit": "nM"},
      {"measurement": "Ki", "setting": "[6]", "result": "> 300000", "unit": "nM"}
    ]},
    {"compound": "CCc1cc(CC(NC(C)=O)C(=O)NCc2ccc([N+](=O)[O-])cc2)ccc1N(C(=O)C(=O)O)c1ccccc1C(=O)O", "note": "(stereo not given)", "values": [
      {"measurement": "Ki", "setting": "[1]", "result": 450, "unit": "nM"},
      {"measurement": "Ki", "setting": "[2]", "result": 540, "unit": "nM"}
    ]},
    {"compound": "CCc1cc(CC(NC(C)=O)C(=O)NCc2ccc(OC)cc2)ccc1N(C(=O)C(=O)O)c1ccccc1C(=O)O", "note": "(stereo not given)", "values": [
      {"measurement": "Ki", "setting": "[1]", "result": 3600, "unit": "nM"},
      {"measurement": "Ki", "setting": "[2]", "result": 4700, "unit": "nM"}
    ]},
    {"compound": "CCc1cc(CC(NC(C)=O)C(=O)NCCCCC(=O)N[C@@H](Cc2ccccc2)C(=O)O)ccc1N(C(=O)C(=O)O)c1ccccc1C(=O)O", "note": "(stereo not given in full)", "values": [
      {"measurement": "Ki", "setting": "[1]", "result": 160, "unit": "nM"},
      {"measurement": "Ki", "setting": "[2]", "result": 140, "unit": "nM"}
    ]},
    {"compound": "CCc1cc(CC(NC(C)=O)C(=O)NCc2ccc(Cl)cc2)ccc1N(C(=O)C(=O)O)c1ccccc1C(=O)O", "note": "(stereo not given)", "values": [
      {"measurement": "Ki", "setting": "[1]", "result": 1500, "unit": "nM"},
      {"measurement": "Ki", "setting": "[2]", "result": 1200, "unit": "nM"}
    ]},
    {"compound": "CCSCC[C@H](NC(=O)CCCCNC(=O)C(Cc1ccc(N(C(=O)C(=O)O)c2ccccc2C(=O)O)c(CC)c1)NC(C)=O)C(=O)O", "note": "(stereo not given in full)", "values": [
      {"measurement": "Ki", "setting": "[1]", "result": 510, "unit": "nM"},
      {"measurement": "Ki", "setting": "[2]", "result": 130, "unit": "nM"}
    ]},
    {"compound": "CCc1cc(CC(NC(C)=O)C(=O)NCCCCC(=O)N[C@H](CCSC)C(=O)O)ccc1N(C(=O)C(=O)O)c1ccccc1C(=O)O", "note": "(stereo not given in full)", "values": [
      {"measurement": "Ki", "setting": "[2]", "result": 1700, "unit": "nM"}
    ]},
    {"compound": "CCc1cc(CC(NC(C)=O)C(=O)NCCCCC(=O)N[C@@H](CCSC)C(=O)OC)ccc1N(C(=O)C(=O)O)c1ccccc1C(=O)O", "note": "(stereo not given in full)", "values": [
      {"measurement": "Ki", "setting": "[1]", "result": 670, "unit": "nM"},
      {"measurement": "Ki", "setting": "[2]", "result": 540, "unit": "nM"}
    ]}
  ]
}
